US10221144B2, “Antibacterial compounds having broad spectrum of activity” (priority 2014, dated 2019)
Counter-ions that a name gives are not always drawn. Like-named read-outs stand apart in the source and are kept apart here.

Key:
Assay type in all cases: biochemical
[1] = target: T1, E. coli DNA gyrase (Escherichia coli, UniProt P0AES4+P0AES6); assay: DNA gyrase supercoiling assay (E. coli)
T1 construct: purchased Inspiralis, UK
Experimental: (§1) The above compounds were tested for the inhibition of the enzyme DNA gyrase in a gyrase supercoiling assay and for the inhibition of the enzyme topoisomerase IV in a decatenation assay, in both Gram positive and Gram negative bacteria, according to the following methods.
(§2) Both the assays were carried out according to a set-up method modified from the article to Blanche F, et al. “Differential Behaviors of Staphylococcus aureus and Escherichia coli Type II DNA Topoisomerases”, Antimicrob. Agents Chemother., 1996, Vol. 40, No. 12 p. 2714-2720.
(§3) The compounds were screened at single concentration (200, 100 or 50 μM), in duplicate.
(§4) Reagents from S. aureus and E. coli Gyrase Supercoiling Assay kits (Inspiralis, UK) were used. A master mix with a total volume sufficient for the number of reactions to perform was prepared with the following reagents: 5× assay buffer, relaxed pBR322 substrate (0.5 μg/reaction), RNase-DNase free water. Aliquotes of this mix were dispensed in each tube, then 10× compound stock solutions or vehicle control (DMSO), were added to each reaction tube.
(§5) Reaction was started with E. Coli (2 U/reaction) or S. aureus (1 U/reaction) gyrase enzyme addition.
(§6) A sample added with an equal volume of dilution buffer was used as negative control (without enzyme).
(§7) The reaction tubes were gentle vortexed and incubated 30 minutes at 37° C. Each reaction was stopped by adding 30 μl of Stop Buffer and 30 μl chloroform/isoamyl alcohol (24/1), briefly vortexed for 5-10 seconds and centrifuged at 20000×g for 2 minutes. Samples were loaded onto 1% agarose gel and subjected to electrophoresis for 1 hour at 80V constant voltage in TAE (40 mM Tris-acetate, 2 mM EDTA).
(§8) Data acquisition and analysis. Treatment of relaxed pBR322 with DNA gyrase converted the relaxed topoisomers (DNAs of different linking number) to the supercoiled form of the plasmid, which migrates faster on an agarose gel. An upper band might also be visible, which consists of open-circular (nicked) DNA which is present in the relaxed substrate but co-migrates with some of the relaxed topoisomers.
(§9) Bands were visualized by ethidium bromide staining (dilution 1:20000) for 30 minutes followed by destaining in distilled water for 10 minutes.
(§10) In order to evaluate the compounds activity on the enzyme, the bands of supercoiled DNAs in the gel were photographed by a digital imaging system ImageQuant LAS 4000 (GE Healthcare) according to manufacturer's instructions.
(§11) The fluorescent intensity of each band was analyzed by ImageQuant TL software and it was expressed as volume (volume of the uncalibrated quantity of material in the image feature after subtraction of the background intensity by using rolling ball method).
(§12) Each band intensity was compared, as percentage, to vehicle sample band intensity, which served as positive control, on the same gel.
(§13) Inhibitory activity was expressed as percent of inhibition versus the positive control.
(§14) The supercoiled or decatenated DNA bands obtained as described in Example 1 were analysed as follows.
(§15) Bands were analyzed by gel documentation equipment (Syngene, Cambridge, UK) and quantitated using Syngene Gene Tools software. Raw gel data (fluorescent band volumes) collected from Syngene, GeneTools gel analysis software were converted to a percentage of the 100% control (the fully supercoiled or decatenated DNA band). […] The IC50 data were calculated by using the global curve fit non-linear regression tool by selecting the Single, 2 Parameter fit function from the Exponential Decay equation category.

[2] = target: T2, E. coli Topoisomerase IV (Escherichia coli, UniProt P0AFI2+P20083); assay: Topoisomerase IV decatenation assay (E. coli); details: for inhibition at 50 µM: read-out: % inhibition Topo IV
T2 construct: purchased Inspiralis, UK
Experimental: as §1, §2, §3
(§16) S. aureus and E. coli Topoisomerase IV decatenation kits (Inspiralis, UK) were used. A master mix with a total volume sufficient for the number of reactions to perform was prepared with the following reagents: 5× assay buffer (50 mM HEPES-KOH (pH 7.6), 100 mM potassium glutamate, 10 mM magnesium acetate, 10 mM DTT, 1 mM ATP, 50 μg/ml albumin), kDNA substrate (200 ng/reaction), RNase-DNase free water. Aliquots of this mix were dispensed in each tube, then 10× compound stock solutions or vehicle control (DMSO), were added in each reaction tube.
(§17) Reaction was started with Topoisomerase IV enzyme (0.5 U/reaction) addition.
as §6
(§18) The reaction tubes were gentle vortexed and incubated 30 minutes at 37° C. Each reaction was stopped by adding 30 μl of Stop Buffer and 30 μl of chloroform/isoamyl alcohol (24/1), briefly vortexed for 5-10 seconds and centrifuged at 20000×g for 2 minutes. Samples taken from the upper phase were loaded into 1% agarose gel and subjected to electrophoresis for 1 hour at 80V constant voltage in TAE (40 mM Tris-acetate, 2 mM EDTA).
(§19) Data acquisition and analysis. Due to the high molecular mass, kDNA could not enter an agarose gel under normal electrophoresis conditions, but remained in the wells. In the presence of Topo IV topoisomerase mini-circles (2.5 Kb) were released from kDNA by decatenation and were quickly and easily resolved in the gel at relatively high voltages.
(§20) Bands were visualized by ethidium bromide staining (dil 1:20000) for 30 minutes followed by destaining in distilled water for 10 minutes.
(§21) For single concentration screening assay, in order to evaluate the compounds activity on the enzymes, the bands of decatenated DNAs in the gel were photographed by a digital imaging system ImageQuant LAS 4000 (GE Healthcare) according to manufacturer's instructions.
as §11, §12, §13, §14, §15

[3] = target: T3, S. aureus DNA gyrase (Staphylococcus aureus, UniProt P0A0K8+P20831); assay: DNA gyrase supercoiling assay (S. aureus)
T3 construct: purchased Inspiralis, UK
Experimental: as §1, §2, §3, §4, §5, §6, §7, §8, §9, §10, §11, §12, §13, §14, §15

[4] = target: T4, S. aureus Topoisomerase IV (Staphylococcus aureus, UniProt P0C1S7+P0C1U9); assay: Topoisomerase IV decatenation assay (S. aureus); details: for inhibition at 50 µM: read-out: % inhibition Topo IV
T4 construct: purchased Inspiralis, UK
Experimental: as §1, §2, §3, §16, §17, §6, §18, §19, §20, §21, §11, §12, §13, §14, §15

[5] = E. coli, conc. 50 μM, n/a = not active
[6] = S. aureus, conc. 50 μM, n/a = not active
[7] = S. aureus, concentration-response curve, eight half-log concentrations 0.1 to 300 μM, read-out: IC50 Topo IV

T2 sequence (P20083 whole entry): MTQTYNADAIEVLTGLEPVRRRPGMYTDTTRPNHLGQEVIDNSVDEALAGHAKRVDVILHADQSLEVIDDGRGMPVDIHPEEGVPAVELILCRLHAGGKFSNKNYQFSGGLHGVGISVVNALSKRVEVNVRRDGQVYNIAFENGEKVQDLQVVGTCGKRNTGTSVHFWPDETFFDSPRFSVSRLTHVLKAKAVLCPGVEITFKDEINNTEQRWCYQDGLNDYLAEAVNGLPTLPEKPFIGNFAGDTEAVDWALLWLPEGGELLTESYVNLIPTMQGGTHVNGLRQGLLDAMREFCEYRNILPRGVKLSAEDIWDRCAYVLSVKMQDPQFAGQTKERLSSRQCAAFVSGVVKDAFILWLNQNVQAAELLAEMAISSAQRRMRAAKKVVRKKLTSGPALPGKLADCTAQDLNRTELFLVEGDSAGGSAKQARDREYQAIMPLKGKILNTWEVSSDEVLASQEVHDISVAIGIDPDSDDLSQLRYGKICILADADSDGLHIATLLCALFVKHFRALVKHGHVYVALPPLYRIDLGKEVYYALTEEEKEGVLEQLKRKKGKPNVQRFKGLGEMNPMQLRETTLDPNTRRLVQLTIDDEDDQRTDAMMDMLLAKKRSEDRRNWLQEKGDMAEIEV
T2 sequence (P0AFI2 whole entry): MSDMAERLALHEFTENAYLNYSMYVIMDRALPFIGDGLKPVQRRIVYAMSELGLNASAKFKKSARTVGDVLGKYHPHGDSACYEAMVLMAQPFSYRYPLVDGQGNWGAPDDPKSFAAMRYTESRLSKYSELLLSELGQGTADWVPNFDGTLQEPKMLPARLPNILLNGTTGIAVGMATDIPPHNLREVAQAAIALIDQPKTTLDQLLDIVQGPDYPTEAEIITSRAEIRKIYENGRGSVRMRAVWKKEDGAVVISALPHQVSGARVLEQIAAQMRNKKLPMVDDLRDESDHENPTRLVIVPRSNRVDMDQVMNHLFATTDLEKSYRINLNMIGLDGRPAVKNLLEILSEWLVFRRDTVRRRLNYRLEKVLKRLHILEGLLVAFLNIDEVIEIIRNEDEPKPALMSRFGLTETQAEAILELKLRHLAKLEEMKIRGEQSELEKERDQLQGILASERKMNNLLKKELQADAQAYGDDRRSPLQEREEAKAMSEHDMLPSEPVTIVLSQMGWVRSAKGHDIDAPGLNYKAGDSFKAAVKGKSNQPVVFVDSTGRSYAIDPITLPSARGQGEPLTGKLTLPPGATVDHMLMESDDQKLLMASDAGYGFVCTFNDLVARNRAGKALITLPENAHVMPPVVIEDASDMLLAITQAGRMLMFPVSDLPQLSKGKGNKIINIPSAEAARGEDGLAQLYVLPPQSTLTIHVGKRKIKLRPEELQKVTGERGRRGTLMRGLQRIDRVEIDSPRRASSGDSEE
T1 sequence (P0AES4 whole entry, one chain of several): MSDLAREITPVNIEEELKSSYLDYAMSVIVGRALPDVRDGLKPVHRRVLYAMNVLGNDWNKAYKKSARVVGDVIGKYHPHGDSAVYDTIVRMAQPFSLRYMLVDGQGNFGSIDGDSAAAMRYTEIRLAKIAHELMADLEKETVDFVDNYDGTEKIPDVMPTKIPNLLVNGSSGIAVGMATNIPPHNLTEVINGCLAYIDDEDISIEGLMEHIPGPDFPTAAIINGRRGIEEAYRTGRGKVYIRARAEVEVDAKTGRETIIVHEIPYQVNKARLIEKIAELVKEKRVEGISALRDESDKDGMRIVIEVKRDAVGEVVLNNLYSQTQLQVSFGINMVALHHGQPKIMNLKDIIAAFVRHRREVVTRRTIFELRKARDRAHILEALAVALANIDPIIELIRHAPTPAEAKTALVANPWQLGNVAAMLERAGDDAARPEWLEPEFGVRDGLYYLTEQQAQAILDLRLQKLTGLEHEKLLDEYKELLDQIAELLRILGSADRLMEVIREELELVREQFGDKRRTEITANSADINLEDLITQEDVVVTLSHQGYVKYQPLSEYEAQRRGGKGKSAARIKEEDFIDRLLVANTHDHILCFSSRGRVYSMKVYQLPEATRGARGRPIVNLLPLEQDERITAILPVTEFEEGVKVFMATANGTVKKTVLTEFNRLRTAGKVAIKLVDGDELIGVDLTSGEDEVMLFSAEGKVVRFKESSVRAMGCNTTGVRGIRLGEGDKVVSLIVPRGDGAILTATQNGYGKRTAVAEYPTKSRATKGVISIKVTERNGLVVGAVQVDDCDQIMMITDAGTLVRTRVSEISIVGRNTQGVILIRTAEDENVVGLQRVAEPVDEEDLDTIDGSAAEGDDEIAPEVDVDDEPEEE
T3 sequence (P0A0K8 whole entry): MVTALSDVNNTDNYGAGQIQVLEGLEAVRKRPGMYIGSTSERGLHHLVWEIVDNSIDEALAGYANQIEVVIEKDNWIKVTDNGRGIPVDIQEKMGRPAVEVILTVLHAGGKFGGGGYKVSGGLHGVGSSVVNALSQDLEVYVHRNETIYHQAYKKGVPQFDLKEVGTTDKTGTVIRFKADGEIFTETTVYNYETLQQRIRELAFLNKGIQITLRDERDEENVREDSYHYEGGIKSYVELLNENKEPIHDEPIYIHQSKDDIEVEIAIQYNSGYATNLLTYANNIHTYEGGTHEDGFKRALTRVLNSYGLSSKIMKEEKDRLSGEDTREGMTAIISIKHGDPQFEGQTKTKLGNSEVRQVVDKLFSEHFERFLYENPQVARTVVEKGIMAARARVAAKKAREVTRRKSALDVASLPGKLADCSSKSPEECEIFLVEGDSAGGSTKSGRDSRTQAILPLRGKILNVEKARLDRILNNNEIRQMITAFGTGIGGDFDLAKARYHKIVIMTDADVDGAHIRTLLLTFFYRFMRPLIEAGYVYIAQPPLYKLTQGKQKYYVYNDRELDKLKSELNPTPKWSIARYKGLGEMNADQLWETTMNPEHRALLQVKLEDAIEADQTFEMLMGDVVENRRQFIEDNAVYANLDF
T3 sequence (P20831 whole entry): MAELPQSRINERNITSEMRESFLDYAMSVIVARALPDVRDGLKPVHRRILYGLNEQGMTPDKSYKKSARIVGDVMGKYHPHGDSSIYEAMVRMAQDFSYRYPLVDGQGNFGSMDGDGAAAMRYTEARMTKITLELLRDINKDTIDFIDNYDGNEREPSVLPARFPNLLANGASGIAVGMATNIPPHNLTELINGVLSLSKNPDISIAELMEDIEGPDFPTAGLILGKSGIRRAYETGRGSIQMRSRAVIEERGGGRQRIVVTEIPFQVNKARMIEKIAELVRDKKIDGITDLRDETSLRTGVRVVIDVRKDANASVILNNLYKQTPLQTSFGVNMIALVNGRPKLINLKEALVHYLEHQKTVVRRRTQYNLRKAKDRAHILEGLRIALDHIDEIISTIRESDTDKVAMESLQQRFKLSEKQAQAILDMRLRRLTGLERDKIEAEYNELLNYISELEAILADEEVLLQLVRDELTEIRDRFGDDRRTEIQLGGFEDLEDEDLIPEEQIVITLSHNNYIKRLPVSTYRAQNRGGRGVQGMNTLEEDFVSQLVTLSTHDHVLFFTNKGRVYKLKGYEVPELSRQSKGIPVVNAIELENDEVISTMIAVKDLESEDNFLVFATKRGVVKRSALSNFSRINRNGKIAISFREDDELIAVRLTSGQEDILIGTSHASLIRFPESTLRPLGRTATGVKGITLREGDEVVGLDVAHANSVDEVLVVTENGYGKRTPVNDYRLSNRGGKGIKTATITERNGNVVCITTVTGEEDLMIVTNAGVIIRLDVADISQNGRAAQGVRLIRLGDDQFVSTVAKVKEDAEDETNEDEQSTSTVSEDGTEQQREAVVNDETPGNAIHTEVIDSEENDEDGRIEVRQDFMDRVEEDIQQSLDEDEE

Compound	inhibition at 50 µM [1, 5]	inhibition at 50 µM [2, 5]	inhibition at 50 µM [3, 6]	inhibition at 50 µM [4, 6]	IC50 [1]	IC50 [2]	IC50 [3]	IC50 [4]	inhibition at 50 µM [4]	IC50 [4, 7]	% inhibition DNA gyrase [1, 5]	IC50 ([1]; E. coli, concentration-response curve, eight half-log concentrations 0.1 to 300 μM, read-out: IC50 DNA gyrase)	% inhibition Topo IV [2, 5]	IC50 ([2]; E. coli, concentration-response curve, eight half-log concentrations 0.1 to 300 μM, read-out: IC50 Topo IV)	% inhibition DNA gyrase [3, 6]	IC50 ([3]; S. aureus, concentration-response curve, eight half-log concentrations 0.1 to 300 μM, read-out: IC50 DNA gyrase)	% inhibition Topo IV [4, 6]
CC1CN(c2nccc3ccc(F)cc23)CCC1NCc1cc2c(=O)oc3ccccc3c2[nH]1 (stereo not drawn) [Compound 177, 2-({[1-(7-fluoroisoquinolin-1-yl)-3-methylpiperidin-4-yl]amino}methyl) [1]benzopyrano[4,3-b]pyrrol-4(1H)-one]	77%	74%	98%	14%													
COc1ccc2ncc(C#N)c(N3CCC(NCc4cc5c([nH]4)c(=O)oc4ccc(F)cc45)CC3)c2n1 [Compound 195, 4-(4-{[(8-fluoro-4-oxo-3,4-dihydro[1]benzopyrano[3,4-b]pyrrol-2-yl)methyl]amino}piperidin-1-yl)-6-methoxy-1,5-naphthyridine-3-carbonitrile]	99%	100%	100%	100%	140 nM	300 nM	100 nM	100 nM									
COc1ccc2cc(F)nc(N3CCN(CC(O)CNc4cc(=O)oc5ccc(F)cc45)CC3)c2c1 (stereo not drawn) [Compound 203, 6-fluoro-4-({3-[4-(3-fluoro-7-methoxyisoquinolin-1-yl)piperazin-1-yl]-2-hydroxypropyl}amino)-2H-1-benzopyran-2-one]	100%	100%	100%						100%								
O=c1nc(NCC(O)CN2CCN(c3nccc4ccc(F)cc34)CC2)c2cc(F)ccc2o1 (stereo not drawn) [Compound 148, 6-fluoro-4-({3-[4-(7-fluoroisoquinolin-1-yl)piperazin-1-yl]-2-hydroxypropyl}amino)-2H-1,3-benzoxazin-2-one]	96%	100%	100%	100%	420 nM	120 nM	24 nM			50 nM							
O=c1nc(NCC(O)CN2CCN(c3nc(F)cc4ccc(F)cc34)CC2)c2cc(F)ccc2o1 (stereo not drawn) [Compound 149, 4-({3-[4-(3,7-difluoroisoquinolin-1-yl)piperazin-1-yl]-2-hydroxypropyl}amino)-6-fluoro-2H-1,3-benzoxazin-2-one]	90%	90%	100%	100%	100 nM	140 nM	18 nM			40 nM							
O=c1nc(NCC(O)CN2CCN(c3nccc4ncc(F)cc34)CC2)c2cc(F)ccc2o1 (stereo not drawn) [Compound 162, 6-fluoro-4-({3-[4-(3-fluoro-1,6-naphthyridin-5-yl)piperazin-1-yl]-2-hydroxypropyl}amino)-2H-1,3-benzoxazin-2-one]	95%	100%	100%	100%	4850 nM	950 nM	880 nM			310 nM							
COc1cnc2ccnc(N3CCC(NCc4cc5c([nH]4)c(=O)oc4ccc(F)cc45)CC3)c2n1 [Compound 199, 8-fluoro-2-({[1-(3-methoxypyrido[3,4-b]pyrazin-5-yl)piperidin-4-yl]amino}methyl)[1]benzopyrano[3,4-b]pyrrol-4(3H)-one]	90%	100%	92%						100%								
NC(CN1CCN(c2nccc3ccc(F)cc23)CC1)c1nc2c(=O)oc3ccccc3c2[nH]1 (stereo not drawn) [Compound 158, 2-{1-amino-2-[4-(7-fluoroisoquinolin-1-yl)piperazin-1-yl]ethyl}[1]benzopyrano[3,4-d]imidazol-4(1H)-one hydrochloride]	95%	97%	100%		1860 nM	920 nM	860 nM		100%	2130 nM							
COC1CN(c2nccc3ccc(F)cc23)CCC1NCc1cc2c(=O)oc3ccccc3c2[nH]1 (stereo not drawn) [Compound 171, 2-({[1-(7-fluoroisoquinolin-1-yl)-3-methoxypiperidin-4-yl]amino}methyl)[1]benzopyrano[4,3-b]pyrrol-4(1H)-one]	93%	97%	100%	72%													
O=c1oc2ccc(F)cc2c2cc(CNC3CCN(c4nccc5nccnc45)CC3)[nH]c12 [Compound 196, 8-fluoro-2-({[1-(pyrido[3,4-b]pyrazin-5-yl)piperidin-4-yl]amino}methyl)[1]benzopyrano[3,4-b]pyrrol-4(3H)-one]	85%	100%	83%		790 nM	2540 nM	160 nM	390 nM	89%								
O=c1nc(NCC(O)CN2CCN(c3nccc4nccnc34)CC2)c2cc(F)ccc2o1 (stereo not drawn) [Compound 156, 6-fluoro-4-((2-hydroxy-3-(4-(pyrido[3,4-b]pyrazin-5-yl)piperazin-1-yl)propyl)amino)-2H-benzo[e][1,3]oxazin-2-one]	78%	91%	89%	86%	2740 nM	640 nM	1760 nM			1250 nM							
7-methoxy-1-chloroisoquinoline [Compound 88]										6700 nM	100%	3200 nM	100%	900 nM	100%	1100 nM	88%
O=c1nc(NCC(O)CN2CCN(c3nc(F)cc4ccc(OC(F)(F)F)cc34)CC2)c2cc(F)ccc2o1 (stereo not drawn) [Compound 155, 6-fluoro-4-[(3-{4-[3-fluoro-7-(trifluoromethoxy)isoquinolin-1-yl]piperazin-1-yl}-2-hydroxypropyl)amino]-2H-1,3-benzoxazin-2-one]	60%	0%	50%	50%	6310 nM		8740 nM			7210 nM							
